Measured values from ChEMBL document CHEMBL1201862, “PubChem BioAssay data set” (2004).
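Results reflect a 48-hour exposure of cells in 96-well plates to compound at five concentrations. GI50 is the concentration that inhibits growth by half.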 Active and inactive are the calls of the source. Cut-off read from the data, not from the text of the source: active = GI50 up to about 1.1 µM and inactive = higher.

Experiments:
Experiment in all cases: NCI tumour cell line growth inhibition, 48 h
[1] = system: KM12
[2] = system: HOP-92
[3] = system: COLO 205
[4] = system: UACC-62
[5] = system: SK-OV-3
[6] = system: SW-620
[7] = system: CCRF-CEM
[8] = system: SNB-19
[9] = system: NCI/ADR-RES
[10] = system: ACHN
[11] = system: HCT-116
[12] = system: OVCAR-5
[13] = system: MDA-N
[14] = system: DU-145
[15] = system: SF-539
[16] = system: T47D
[17] = system: SK-MEL-28
[18] = system: TK-10
[19] = system: OVCAR-8
[20] = system: UACC-257

Measured: GI50

CC1=CC(=O)c2cccc(NC3=NCCO3)c21
inactive: [1] 30.4 µM | [2] 36.1 µM | [3] 41.1 µM | [4] > 100 µM | [5] > 100 µM | [6] > 100 µM | [7] 42 µM | [8] > 100 µM | [9] 29.5 µM | [10] 86.7 µM | [11] 33.6 µM | [12] > 100 µM | [13] 27.7 µM | [14] 74.1 µM | [15] 46.8 µM | [16] 68.7 µM | [17] 78.7 µM | [18] > 100 µM

CC1CC(C(=O)OC2OC(COC3OC(CO)C(OC4OC(C)C(O)C(O)C4O)C(O)C3O)C(O)C(O)C2O)C2CCC3(C)C(=CCC4(C)C3CCC3C(C)(CO)C(O)C(O)CC34C)C2C1C (stereo unspecified)
inactive: [1] 17.9 µM | [2] 17.4 µM | [3] 17.3 µM | [4] 17.7 µM | [5] 49.1 µM | [6] 30.1 µM | [7] 21.9 µM | [8] 17.4 µM | [9] > 100 µM | [10] > 10 µM | [11] 18.2 µM | [12] 26.7 µM | [13] 19.5 µM | [19] 17.4 µM | [14] 33.5 µM | [15] 18.4 µM | [16] 18.4 µM | [20] > 10 µM | [17] 17 µM | [18] > 100 µM

CC1=NNC(=O)C1C1CC(c2c[nH]c3ccccc23)=NNC1=S (stereo unspecified)
inactive: [1] 29.6 µM | [2] > 100 µM | [3] 72.1 µM | [4] > 100 µM | [5] > 100 µM | [6] > 100 µM | [7] 28.6 µM | [8] > 100 µM | [9] > 100 µM | [10] > 100 µM | [11] > 100 µM | [12] > 100 µM | [13] > 100 µM | [19] > 100 µM | [14] > 100 µM | [15] > 100 µM | [16] 82.2 µM | [20] > 100 µM | [17] > 100 µM | [18] > 100 µM

O=C(O)CCN1C(=S)CSC1=S
inactive: [1] > 100 µM | [2] > 100 µM | [3] > 100 µM | [4] > 100 µM | [5] > 100 µM | [6] > 100 µM | [7] 44.2 µM | [8] > 100 µM | [9] > 100 µM | [10] > 100 µM | [11] > 100 µM | [12] > 100 µM | [13] > 100 µM | [19] > 100 µM | [14] > 100 µM | [15] > 100 µM | [16] > 100 µM | [20] > 100 µM | [17] > 100 µM | [18] > 100 µM

CC(C)CC(=O)NC(Nc1ccc(S(=O)(=O)Nc2ncccn2)cc1)(C(F)(F)F)C(F)(F)F
inactive: [1] > 100 µM | [2] > 100 µM | [3] > 100 µM | [4] > 100 µM | [5] > 100 µM | [6] > 100 µM | [7] > 100 µM | [8] > 100 µM | [9] > 100 µM | [10] > 100 µM | [11] > 100 µM | [12] > 100 µM | [13] > 100 µM | [19] > 100 µM | [14] > 100 µM | [15] > 100 µM | [16] > 100 µM | [20] > 100 µM | [17] > 100 µM

COc1ccc(CSC2=C(C#N)C(=O)NC3(CCCCC3)S2)cc1
inactive: [2] > 55.7 µM | [3] > 61.8 µM | [4] 61.4 µM | [5] 44.7 µM | [6] 32.6 µM | [7] 2.66 µM | [8] 54.5 µM | [9] 49.7 µM | [10] > 93.5 µM | [11] 44.5 µM | [12] > 100 µM | [13] 22.4 µM | [19] > 59.3 µM | [14] > 85.7 µM | [15] > 56.6 µM | [16] 27.5 µM | [20] > 81.7 µM | [17] > 73.6 µM | [18] > 95.5 µM

COc1ccc(CCN2C(=O)C=CC2=O)cc1OC
inactive: [1] 19.6 µM | [2] 15.4 µM | [3] 1.83 µM | [4] 17.3 µM | [5] 18.8 µM | [6] 2.28 µM | [7] 1.85 µM | [8] 19.5 µM | [9] 25.4 µM | [10] 1.77 µM | [11] 3.53 µM | [12] 18.4 µM | [13] 17.8 µM | [19] 19.8 µM | [14] 16.5 µM | [15] 17.3 µM | [16] 7.16 µM | [20] 16.8 µM | [17] 16.4 µM | [18] 15.2 µM
